Measurements as given in patent US20220056019A1, “FARNESOID X RECEPTOR AGONISTS AND USES THEREOF” (Metacrine, Inc., priority 2018, published 2022).

Biological target: T1, hFXR (Homo sapiens, UniProt Q96RI1)
T1 construct: expressed in transfected cells; host or cells: CV-1 cells
T1 sequence (Q96RI1 1-486): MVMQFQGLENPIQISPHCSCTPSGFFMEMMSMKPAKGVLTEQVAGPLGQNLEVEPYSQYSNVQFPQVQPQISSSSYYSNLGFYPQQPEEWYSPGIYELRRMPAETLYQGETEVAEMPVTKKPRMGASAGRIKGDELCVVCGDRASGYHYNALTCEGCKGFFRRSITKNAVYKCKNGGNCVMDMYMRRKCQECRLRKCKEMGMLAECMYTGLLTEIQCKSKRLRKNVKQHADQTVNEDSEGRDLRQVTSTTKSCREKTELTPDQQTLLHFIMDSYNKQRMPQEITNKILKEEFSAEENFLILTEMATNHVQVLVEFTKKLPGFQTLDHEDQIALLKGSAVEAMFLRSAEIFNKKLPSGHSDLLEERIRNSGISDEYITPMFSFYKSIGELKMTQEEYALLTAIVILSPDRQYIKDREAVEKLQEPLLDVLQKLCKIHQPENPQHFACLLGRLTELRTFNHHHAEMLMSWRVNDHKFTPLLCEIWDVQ
T1 sequence (P19793 1-462 partner): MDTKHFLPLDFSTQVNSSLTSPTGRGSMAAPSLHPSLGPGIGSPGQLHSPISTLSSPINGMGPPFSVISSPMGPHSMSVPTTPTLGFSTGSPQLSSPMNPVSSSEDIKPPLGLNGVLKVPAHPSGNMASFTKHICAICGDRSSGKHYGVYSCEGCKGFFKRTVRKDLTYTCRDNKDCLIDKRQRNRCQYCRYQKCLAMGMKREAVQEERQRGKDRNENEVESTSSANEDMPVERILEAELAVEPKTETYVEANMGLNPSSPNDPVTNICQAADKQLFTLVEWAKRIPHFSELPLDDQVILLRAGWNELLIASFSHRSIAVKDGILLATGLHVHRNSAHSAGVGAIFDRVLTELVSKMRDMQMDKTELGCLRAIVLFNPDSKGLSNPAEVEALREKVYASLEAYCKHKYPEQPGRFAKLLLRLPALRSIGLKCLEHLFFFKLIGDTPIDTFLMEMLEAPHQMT
Experiment: In Vitro FXR Assay (TK): TK-ECRE-luc reporter in transfected CV-1 cells
Type: cell-based
Conditions: 18 hrs incubation, luminescence
Method in brief: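 CV-1 cells in DMEM with 10% charcoal-stripped FBS were transiently co-transfected with hFXR, hRXR, TK-ECRE-luc reporter and pCMX-YFP plasmids over 18 h at 37 °C. Compounds serially diluted in DMSO were added for 18 h; cells were then lysed and luciferase luminescence measured.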

EC50, ≤ 50 nM:
COCC(=O)N[C@H]1CC[C@H](C(=O)N(CC23CCC(c4ccc(OC)c(C)c4)(CC2)CC3)c2cc(-c3cnn(C(C)C)c3)ccn2)CC1 [Compound 9.01, trans-N-(4-(1-Isopropyl-1H-pyrazol-4-yl)pyridin-2-yl)-N-((4-(4-methoxy-3-methylphenyl)bicyclo[2.2.2]octan-1-yl)methyl)-4-(2-methoxyacetamido)cyclohexanecar-boxamide]
COc1ccc(C23CCC(CN(c4nccc(-c5cnn(C(C)C)c5)n4)C(=O)[C@H]4CC[C@H](OC(=O)N5CC(O)C5)CC4)(CC2)CC3)cc1C [Compound 4.60, 4-((4-(1-Isopropyl-1H-pyrazol-4-yl)pyrimidin-2-yl)((4-(4-methoxy-3-methylphenyl)bicyclo [2.2.2]octan-1-yl)methyl)carbamoyl)(trans-cyclohexyl) 3-hydroxyazetidine-1-carboxylate]
COc1ccc([C@H]2CC[C@H](CN(c3cccc(-c4cnn(C(C)C)c4)c3)C(=O)[C@H]3CC[C@H](OC(=O)NCC(F)(F)CO)CC3)CC2)cc1C [Compound 5.02, trans-4-((3-(1-Isopropyl-1H-pyrazol-4-yl)phenyl)(((trans)-4-(4-methoxy-3-methylphenyl)cyclohexyl)methyl)carbamoyl)cyclohexyl (2,2-difluoro-3-hydroxypropyl)carbamate]
COc1ccc(C23CCC(CN(c4cc(-c5cnn(C(C)C)c5)ccn4)C(=O)[C@H]4CC[C@H](OC(=O)N5CC(O)C5)CC4)(CC2)CC3)cc1Cl [Compound 4.16, 4-(((4-(3-Chloro-4-methoxyphenyl)bicyclo [2.2.2]octan-1-yl)methyl) (4-(1-isopropyl-1H-pyrazol-4-yl)pyridin-2-yl)carbamoyl)cyclohexyl hydroxyazetidine-1-carboxylate]
